Measured values: US8741852B2, “Peptides having antimicrobial activity” (Universiti Malaya, priority 2012, dated 2014)
Read-outs that look alike come from different tables or passages of the source. No end group written: not given here.

Legend:
Citrobacter spp. = format: cell-based
Protocol: (§1) Apart from Streptococcus pneumonia, the antimicrobial peptides are also tested for antimicrobial activity against eight common bacterial pathogens of both gram-types as shown in Table 2. […] Testing against the gram-negative Acinetobacter baumannii (31.25 μg/ml) and Citrobacter spp.

[1] = test system: eight common bacterial pathogens of both gram-types; format: cell-based
Protocol: as §1

E. cloacae = test system: E. cloacae
Protocol: as §1

Streptococcus pneumoniae = assay: MIC by broth microdilution against all 60 pneumococcal isolates (overall); format: cell-based
From the text: (§2) The antimicrobial peptides are thereafter tested using broth microdilution assay 5×10^5 cfu/ml against a total of 60 pneumococcal isolates (20 isolates for each penicillin-susceptible, -intermediate, and -resistant pneumococci) to determine their minimum inhibitory concentration (MIC).

K. pneumoniae = format: cell-based, Klebsiella pneumoniae
Protocol: as §1

bacterial pathogens = assay: Spectrum of antibacterial activity (summary in words); format: cell-based; details: against Streptococcus pneumoniae, Acinetobacter baumannii, Staphylococcus aureus, methicillin-resistant Staphylococcus aureus, Escherichia coli, Citrobacter spp.
A. baumannii = format: cell-based, Acinetobacter baumannii
Protocol: as §1

E. coli = format: cell-based, Escherichia coli
Protocol: as §1

[2] = test system: penicilin-intermediate pneumococci
From the text: as §2

[3] = test system: penicillin-resistant pneumococci
From the text: as §2

[4] = test system: penicilin-susceptible pneumococci
From the text: as §2

S. aureus = format: cell-based, Staphylococcus aureus
Protocol: as §1

P. aeruginosa = format: cell-based, Pseudomonas aeruginosa
Protocol: as §1

[5] = Pseudomonas aeruginosa, Enterococcus cloacae, Klebsiella pneumoniae
[6] = Pseudomonas aeruginosa, Enterococcus cloacae

Substance | MIC (E. cloacae) | Overall EP (Streptococcus pneumoniae) | MIC (K. pneumoniae) | EP (effective percentage, isolates inhibited within the effective range) [2] | ER (effective range of minimum inhibitory concentration) [2] | EP (effective percentage, isolates inhibited within the effective range) [3] | ER (effective range of minimum inhibitory concentration) [3] | EP (effective percentage, isolates inhibited within the effective range) [4] | ER (effective range of minimum inhibitory concentration) [4] | MIC (S. aureus) | MIC (Citrobacter spp.) | antimicrobial activity (bacterial pathogens; [5]) | antimicrobial activity (bacterial pathogens; [6]) | further results
GLFDIWAWWRWRR-NH2 (C-terminus assumed) [SEQ ID NO:2, Gly-Leu-Phe-Asp-Ile-Trp-Ala-Trp-Trp-Arg-Trp-Arg-Arg] | >250 µg/mL | 100% | >250 µg/mL | 100% | 7.81 to 250 µg/mL | 100% | 15.63 to 250 µg/mL | 100% | 15.63 to 250 µg/mL | 31.25 µg/mL | – | – | – | MIC (Citrobacter spp.; Gram-negative): 62.5 µg/mL; activity against the other bacteria ([1]; bacteria of Table 2 other than S. aureus, MRSA, A. baumannii, Citrobacter spp., E. coli): non-active; antimicrobial activity (bacterial pathogens): has antimicrobial activity; MIC (A. baumannii; Gram-negative): 31.25 µg/mL; MIC (E. coli; Gram-negative): 250 µg/mL; MIC level against Staphylococcus aureus as compared to methicillin-resistant Staphylococcus aureus (S. aureus): two fold lower
GLFDIWKKLRWRR-NH2 (C-terminus assumed) [SEQ ID NO:5, Gly-Leu-Phe-Asp-Ile-Trp-Lys-Lys-Leu-Arg-Trp-Arg-Arg] | 125 µg/mL | 100% | 250 µg/mL | 100% | 15.63 to 125 µg/mL | 100% | 31.25 to 125 µg/mL | 100% | 15.63 to 125 µg/mL | 125 µg/mL | 31.25 µg/mL | have antimicrobial activity | – | range of minimum inhibitory concentrations [1]: 31.25 to 125 µg/mL; MIC (A. baumannii): 31.25 µg/mL; MIC (E. coli): 31.25 µg/mL; MIC (P. aeruginosa): 31.25 µg/mL
GLFDIWKKWRWRR-NH2 (C-terminus assumed) [SEQ ID NO:4, Gly-Leu-Phe-Asp-Ile-Trp-Lys-Lys-Trp-Arg-Trp-Arg-Arg] | – | 100% | – | – | – | – | – | – | – | – | – | – | have antimicrobial activity | –
GLFDIWKWWRWRR-NH2 (C-terminus assumed) [SEQ ID NO:3, Gly-Leu-Phe-Asp-Ile-Trp-Lys-Trp-Trp-Arg-Trp-Arg-Arg] | 31.25 µg/mL | 100% | 62.5 µg/mL | 100% | 7.81 to 250 µg/mL | 100% | 15.63 to 62.5 µg/mL | 100% | 7.81 to 62.5 µg/mL | – | 15.63 µg/mL | have antimicrobial activity | – | range of minimum inhibitory concentration [1]: 7.81 to 125 µg/mL
GLFDKWAWWRWRR-NH2 (C-terminus assumed) [SEQ ID NO:1, Gly-Leu-Phe-Asp-Lys-Trp-Ala-Trp-Trp-Arg-Trp-Arg-Arg] | – | 100% | – | – | – | – | – | – | – | – | – | – | have antimicrobial activity | –
